Columns and labels:
MCF-7ras cells [1] = assay: MTT growth assay with isobolic combination index; format: cell-based, human; settings: for NaPA Bc / NaPA Be: used alone
Experimental: (§1) Cells sampled in the exponential growth phase are seeded in 96-well plates in a proportion of 5 000 cells per 200 μl, this being in a DMEM medium supplemented with 2% of FCS, 1% of glutamine and 1% of sodium pyruvate. After incubation for 24 hours, the various concentrations of products to be tested are added in a proportion of 3 wells per concentration. A negative control is prepared without the addition of product.
(§2) After incubation for 72 hours, the cells are washed twice with a buffered saline solution and then 100 μl of MTT are added to each well. After 4 hours of incubation, 100 μl of DMSO are added to the wells before reading the plate 570 nm using a plate reader.
The percentage inhibition I is determined using the equation previously described. The net increase in untreated cells this time corresponds to the cell density contained in the control wells minus that of D0. As regards the net increase in treated cells, it corresponds to the treated cell density at D72 subtracted with that of D0.
MCF-7 cells transfected with the Ha-ras oncogene (MCF-7ras cells) were cultured in DMEM medium supplemented with 10% of FCS, 2 mM of L-glutamine, 1 mM of sodium pyruvate, 50 units/ml of penicillin and 50 μg/ml of streptomycin, at a temperature of 37° C. and in a humid atmosphere with 5% of CO2.
This was carried out in 96-well microplates under the same conditions as those given above in example 17.
In this example, the effects of the following products, alone or in combination, at various concentrations, were studied on MCF-7ras cell proliferation after incubation for 72 hours:
The percentage inhibition I was calculated as described above in example 17.
The effect of synergy between the dextrans DMCB7 or LS4 DMCB or LS17 and NaPA was calculated using the following isobolic equation (T. Mosmann, J. Immunol. Methods, 1983, 65, 55-63): […]
in which Ac and Bc correspond, respectively, to the concentration of dextran derivative and NaPA used in combination, and Ae and Be correspond to the concentration of each of these two compounds used alone and inducing the same effect; D is the combination index and Dm is the mean combination index. When D or Dm is less than 1, then the combination of the two products has a synergistic effect.
When the concentration of dextran derivative used alone (Ae), making it possible to obtain a percentage inhibition close to that which is obtained when the dextran derivative is used in combination with NaPA, is very high and such that it cannot be determined precisely, then the ratio Ac/Ae tends toward zero and, consequently, D=Bc/Be. Such concentrations of dextran derivatives (Ae) have been indicated in tables II, III and IV below as simply being greater than the concentration given for Ac.
Each experiment was repeated 3 times so as to be able to calculate the statistical significance (P) of the combination index (D or Dm) compared to the additive combination index for the effects (D=1) using the Student's t test.

MCF-7ras tumors = assay: Antitumor effect in vivo, tumors induced by inoculation of MCF-7ras cells in athymic mice; settings: NaPA 40 mg/kg, injected twice a week, after 7 weeks of treatment; P=0.049
Experimental: Fifty 3-week-old female athymic mice from the Laboratoire Harlan (Gannat, France) were kept in a temperature-controlled room and subjected to a cycle of light/dark alternating every 12 hours.
Cells of the MCF-7ras tumor line as described above in example 17 were cultured in a DMEM medium supplemented with 10% of FCS until 80% confluency was reached. After centrifugation, the cells were resuspended in DMEM supplemented with 10% of FCS.
Each mouse was then inoculated subcutaneously with these cells, in the proximity of the mammary gland, in a proportion of 5×10^6 cells per animal.
The volume of the tumors (V) was calculated in the following way:
V=(4/3)π(r1)^2)r2); r1 representing the smallest radius of the tumor and r2 the largest radius of the tumor.
Four weeks after inoculation, solutions of NaPA (40 mg/kg) or of dextran LS4 DMCB (150 mg/kg) or of a combination of NaPA (40 mg/kg) and dextran LS4 DMCB (150 mg/kg), prepared in 0.1 ml of sodium chloride, were injected into the mice, twice a week, for 7 weeks for the solutions of NaPA alone and of dextran LS4 DMCB alone. The injections of the combination of NaPA and dextran LS4 DMCB were stopped after six weeks.
For each solution tested, 10 mice chosen randomly from the 50 mice initially inoculated were subjected to the treatment. […]
The volume of each tumor was measured once a week. […]

MCF-7 cells [2] = assay: Cell growth assay, cell counting on Coulter Counter ZM; format: cell-based, human
Experimental: The MCF-7 tumor line is a line of estrogen-sensitive epithelial cells originating from pleural metastases of an infiltrating ductule breast adenocarcinoma. They are cultured in Dulbecco's Modified Eagle Medium (DMEM), supplemented with 10% of fetal calf serum (FCS), 1% of glutamine and 1% of sodium pyruvate. The cells are stored in cryotubes in frozen form in liquid nitrogen. The cryotubes are partially thawed in a water bath at 37° C. 2 ml of complete culture medium are added and the cell suspension is then mixed. Culture flasks (COSTAR® T25) are prepared with culture medium beforehand. The cell suspension is added to the flasks and placed in an incubator at 37° C. with 5% of CO2.
Cells sampled in the exponential growth phase are seeded in 24-well plates in a proportion of 15000 cells per ml and per well, this being in a DMEM medium supplemented with 10% FCS, 1% of sodium pyruvate and 1% of glutamine.
After incubation for 24 hours, the various concentrations of products to be tested are added in the proportion of 4 wells per concentration. These products are diluted in a DMEM medium containing 2% of FCS, 1% of sodium pyruvate and 1% of glutamine, so as to obtain the desired concentrations. The negative control is prepared without the addition of product.
After incubation for 72 hours, the cells are detached and then counted using a Coulter Counter ZM® set on the parameters predefined for MCF-7 cells. The diameter (threshold) of detection is 5 for an attenuation of 32. The latter determines the number of particles of desired diameter contained in the sample. By taking into account the dilution made, the number of cells per ml of initial cell suspension is determined from this value.
%I=[1−(net increase in treated cells/net increase in untreated cells)]×100
The net increase in untreated cells corresponds to the number of cells contained in the control wells (DMEM medium containing 2% FCS) subtracted with the number of cells at D0 (number of cells at the time the products are added to the wells). […]

[3] = test system: 1205LU human melanoma cells; assay: Antitumor effect in vivo, 1205LU human melanoma in athymic mice
Experimental: A group of 14 female athymic mice were subcutaneously inoculated, according to the protocol described above in example 17, with 1205LU human melanoma cells, in a proportion of 10^6 cells per animal.
For a period of five weeks, and at a rate of twice a week, a first group of 4 mice were given an injection of 100 μl of sodium chloride so as to serve as a control group, a second group of 4 mice were given an injection of LS17-NaPAC at a dose of 60 mg/kg/100 μl, and a third group of 6 mice were given an injection of NaPA at a dose of 6.9 mg/kg/100 μl.
The volume of each tumor was measured before the first injection and then once a week for the five weeks of treatment. It was calculated according to the equation defined above in example 17.
Furthermore, at the end of treatment, the mice were sacrificed so as to be able to determine the mass of each of the tumors. […] The treatment with NaPA alone at a dose of 6.9 mg/kg therefore appears to be nonsignificant, contrary to that with LS17-NaPAC at an equivalent dose of 60 mg/kg (p<0.005).

HUVEC cells = assay: HUVEC cell proliferation (MTT), antiangiogenic activity in vitro; format: cell-based; settings: tested alone at concentrations equivalent to LS17-NaPAC, 72 hours
Experimental: Immortalized healthy endothelial cells (HUVEC) were seeded in a proportion of 10000 cells per well and per 100 μl of DMEM medium supplemented with 2% of FCS, in 96-well microplates (COSTAR®). The number of cells was determined after having prepared a standard range.
After culturing for 24 hours, the HUVEC cells were incubated with the various concentrations of the products to be tested prepared in DMEM medium containing 2% of FCS. The absorbance at the time the products were added was measured and compared to the standard range, so as to determine the number of cells.
After culturing for 72 hours, the cell supernatant is removed and 1 wash with PBS buffer containing calcium and magnesium is carried out. 100 μl of a solution of MTT is then added and the cells are incubated for 4 hours. After 4 hours of incubation, the MTT is removed and the crystals which have formed are dissolved with DMSO for 10 minutes with agitation. Absorbance is measured at 570 nm.
The concentration of 10 μg/ml of LS17-NaPAC tested is compared to a concentration of NaPA alone of 1.3216 μg/ml or to a concentration of 8.7 μg/ml of LS17-DMCB alone.

MCF-7 cells [4] = assay: MTT growth assay; format: cell-based, human
Experimental: MTT (3-(4,5-dimethylthiazol-2-yl)-2,5-diphenyl-tetrazolium bromide) has the property that it can be reduced in alkaline medium, thus giving a colored compound, blue formazan. Mitochondria, by virtue of their membrane-bound dehydrogenases, are capable of carrying out this reduction. As a result, the number of functional mitochondria, and indirectly the number of live cells, can be quantified as a function of the intensity of the coloration.
as §1, §2
The percentage inhibition I is determined using the equation previously described. The net increase in untreated cells this time corresponds to the cell density contained in the control wells minus that of D0. […]

MCF-7ras cells [5] = assay: Cell cycle analysis (BrdU/propidium iodide, FACScan); format: cell-based, human; settings: NaPA alone 10 mM, 48 hours
Experimental: To analyze the cell cycle, the cells were seeded in plates in a proportion of […] and per well in DMEM medium supplemented with 2% of FCS. After culturing for 24 hours, the various tested products were added.
After 72 hours, the MCF-7ras cells were incubated in the presence of BrdU for 4 hours. The cells were then washed with PBS buffer and fixed with 70% ethanol. […] The cells were then centrifuged and resuspended in a staining solution containing […] of propidium iodide (Boehringer Mannheim) for 10 min. The stained cells are then analyzed with a FACScan (Coulter).
Analysis of the distribution of MCF-7ras cells treated with NaPA alone (10 mM), the dextran LS4 DMCB alone (18.5 mM) and a combination thereof (NaPA: 10 mM; LS4 DMCB: 18.5 mM) in the various phases of the cell cycle was carried out after 48 hours of treatment.

O=C([O-])Cc1ccccc1.[Na+] [NaPA, sodium phenylacetate]
inhibition of MCF-7ras cell proliferation (MCF-7ras cells [1]; NaPA alone at 30 and 40 mM, 72 h): 70% | NaPA Bc (MCF-7ras cells [1]; same effect as DMCB7 0.05 mM + NaPA 5 mM (10% inhibition)): 1 mM | NaPA Bc (MCF-7ras cells [1]; same effect as DMCB7 0.3 mM + NaPA 5 mM (20% inhibition)): 5 mM | NaPA Bc (MCF-7ras cells [1]; same effect as DMCB7 1 mM + NaPA 5 mM (38% inhibition)): 10.7 mM | NaPA Bc (MCF-7ras cells [1]; same effect as DMCB7 1.27 mM + NaPA 5 mM (42% inhibition)): 12 mM | NaPA Bc (MCF-7ras cells [1]; same effect as DMCB7 1.7 mM + NaPA 5 mM (45% inhibition)): 13 mM | NaPA Bc (MCF-7ras cells [1]; same effect as DMCB7 2 mM + NaPA 5 mM (50% inhibition)): 20 mM | NaPA Bc (MCF-7ras cells [1]; same effect as DMCB7 5 mM + NaPA 5 mM (60% inhibition)): 29 mM | NaPA Bc (MCF-7ras cells [1]; same effect as DMCB7 7 mM + NaPA 5 mM (70% inhibition)): 36 mM | NaPA Bc (MCF-7ras cells [1]; same effect as LS4 3.7 mM + NaPA 0.75 mM (51.4% inhibition)): 22 mM | NaPA Bc (MCF-7ras cells [1]; same effect as LS4 7.4 mM + NaPA 1.5 mM (54.8% inhibition)): 23 mM | NaPA Bc (MCF-7ras cells [1]; same effect as LS4 14.8 mM + NaPA 3 mM (55% inhibition)): 23.3 mM | NaPA Bc (MCF-7ras cells [1]; same effect as LS4 18.5 mM + NaPA 4 mM (60.2% inhibition)): 29.3 mM | NaPA Be (MCF-7ras cells [1]; same effect as LS17 1.53 mM + NaPA 0.5 mM (0% inhibition)): 0 mM | NaPA Be (MCF-7ras cells [1]; same effect as LS17 3 mM + NaPA 1 mM (16% inhibition)): 0.76 mM | NaPA Be (MCF-7ras cells [1]; same effect as LS17 6 mM + NaPA 2 mM (17.3% inhibition)): 0.83 mM | NaPA Be (MCF-7ras cells [1]; same effect as LS17 12 mM + NaPA 4 mM (17.3% inhibition)): 0.83 mM | inhibition of tumor cell growth (MCF-7ras tumors): 59% | IC50 (MCF-7 cells [2]; Homo sapiens, MCF7, 72 h, read-out: IC50 (minimum dose causing arrest of proliferation of 50% of cells)): 5 mM | inhibition of cell proliferation (MCF-7 cells [2]; concentrations greater than 30 mM, reflects cytotoxic effect): exceeds 100% | concentration of NaPA alone giving this inhibition (MCF-7 cells [2]; same inhibition as maximum effect of NaPAC MF6): 50 mM | mass of the tumors vs untreated mice ([3]; NaPA 6.9 mg/kg, end of treatment): no significant difference | effect on tumor growth (tumor volume) ([3]; NaPA 6.9 mg/kg/100 μl, twice a week, five weeks): does not appear to have a significant effect | inhibitory effect on HUVEC cell proliferation (HUVEC cells): do not appear to exhibit an inhibitory effect | effect on MCF-7 cells (MCF-7 cells [4]; concentrations less than 1 mM, MTT): does not appear to have a significant effect | concentration of free NaPA giving this same inhibition (MCF-7 cells [4]; same inhibition (40 to 50%) as the combination): 5 mM | distribution of cells in the phases of the cell cycle (MCF-7ras cells [5]): blocking of the cells in the G0/G1 phase
